Results taken from patent publication US20230272012A1, “PEPTIDES AND METHODS OF USE” (REALTA LIFE SCIENCES, INC., priority 2020, published 2023).
Bridge positions count the residues as written; N and C are the ends. Square brackets hold non-standard residues; d marks the D form. Peptide text beside a SMILES is read from it. S5 = C=CCCC[C@](C)(N)C(=O)O; Sar = CNCC(=O)O

Molecular target: T1, CTLA-4 (Homo sapiens, UniProt P16410)
T1 sequence (P16410 36-223): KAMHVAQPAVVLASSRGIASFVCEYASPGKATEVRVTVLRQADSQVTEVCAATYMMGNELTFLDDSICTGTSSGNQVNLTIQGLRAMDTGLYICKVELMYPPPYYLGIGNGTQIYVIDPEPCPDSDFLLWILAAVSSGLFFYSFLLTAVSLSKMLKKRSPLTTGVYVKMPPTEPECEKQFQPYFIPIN
Assay: Peptide binding to immobilized CTLA-4, ELISA plate-based assay
Details: increasing amounts of peptide
Method: RLS-0117 was allowed to bind to immobilized CTLA-4, PD-1, PD-L1 on the surface of the plate. Bound C1q served as a positive and control for peptide binding. Increasing amounts of peptides were added to the plates followed by a rabbit polyclonal antibody that recognizes the peptides and then a secondary anti-rabbit antibody conjugated with HRP. The plate was then developed by addition of TMB as the substrate for the colorimetric assay.
The inventors further evaluated if RLS-0117 could bind to the well characterized checkpoint inhibitor, cytotoxic T-lymphocyte associated protein 4 (CTLA-4 aka CD152). […] Therefore, the pharmaceutical inhibition of CTLA-4 or its ligand has been considered a promising strategy by many cancer researchers and is a therapeutic target in cancer immunotherapy. To ascertain the ability of RLS-0117 to bind CTLA-4, a binding assay was performed in which these proteins were coated on a microtiter plate followed by incubation with increasing amounts of either […]. Plates coated with PD-1, PD-L1 and C1q served as a positive control […].

Structure (SMILES): CC[C@H](C)[C@H](N)C(=O)N[C@@H](C)C(=O)N[C@@H](CC(C)C)C(=O)N[C@H](C(=O)N[C@@H](CC(C)C)C(=O)N[C@@H](CCC(=O)O)C(=O)N1CCC[C@H]1C(=O)N(C)CC(=O)N[C@@H](CS)C(=O)N[C@@]1(C)CCCC=CCCC[C@@](C)(C(=O)N[C@@H](C)C(=O)O)NC(=O)[C@H](CCCNC(=N)N)NC(=O)[C@H](CCC(=O)O)NC(=O)[C@H](CCC(N)=O)NC1=O)[C@@H](C)CC [PA-0117, IALILEP(Sar)CS5QERS5A] (H-IALILEP[Sar]C[S5]QER[S5]A-OH; staple 10-14)
- binding to CTLA-4: bound CTLA-4
